Test results reported in patent US8586755B2, “Substituted nicotinamides as KCNQ2/3 modulators” (Grünenthal GmbH, priority 2009, dated 2013).

Biological target: T1, KCNQ2/3 channels (Homo sapiens, UniProt O43525+O43526)
T1 construct: expressed in transfected cells
Assay: Fluorescence assay using a voltage sensitive dye (fluorimetry)
Type: cell-based
Settings: CHO-K1 cells expressing KCNQ2/3 channels; for EC50: agonistic activity; for Emax / Fluorimetry % efficacy (retigabine 50 μM = 100%): retigabine 50 μM = 100%; for Emax: read-out: Fluorimetry % efficacy (retigabine 50 μM = 100%)
In short: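 Agonist EC50s come from the F2 vs F1 fluorescence comparison, F2 taken at the peak after KCl depolarisation (92 mM final) and F1 after 30 min compound exposure at room temperature. Assay uses KCNQ2/3-expressing CHO-K1 cells stained 45 min with a red voltage-sensitive dye in pH 7.4 ES buffer.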

Q: Which results are given for `O=C(NCCCc1ccncc1)c1cccnc1SCCCc1ccc(F)cc1` [compound 95, 2-[3-(4-Fluorophenyl)-propylsulfanyl]-N-(3-pyridine-4-yl-propyl)-pyridine-3-carboxylic acid amide]?
A: EC50: 2.06 µM; Emax: 147%

Q: With `CCCNC(=O)c1cccnc1SCCCc1ccc(F)cc1` [compound 96, 2-[3-(4-Fluorophenyl)-propylsulfanyl]-N-propyl-pyridine-3-carboxylic acid amide] as the compound, how does the EC50 read?
A: Its EC50 is 0.66 µM.

Q: What about the Emax of the same compound?
A: Its Emax is 194%.

Q: How did the EC50 turn out when `CCCCNC(=O)c1cccnc1SCCCc1ccc(F)cc1` [compound 97, N-Butyl-2-[3-(4-fluorophenyl)-propylsulfanyl]-pyridine-3-carboxylic acid amide] was run?
A: The EC50 was 0.134 µM.

Q: And the Emax?
A: Its Emax is 196%.

Q: Which Emax does the source give for `O=C(NCc1cccs1)c1cccnc1SCCCc1cccnc1` [compound 98, 2-(3-Pyridin-3-yl-propylsulfanyl)-N-(thiophen-2-yl-methyl)-pyridine-3-carboxylic acid amide] here?
A: Its Emax is 29%.

Q: How did the EC50 turn out when `Cc1ccc(CCCSc2ncccc2C(=O)NCc2cccs2)cc1` [compound 99, 2-[3-(p-Tolyl)-propylsulfanyl]-N-(thiophen-2-yl-methyl)-pyridine-3-carboxylic acid amide] was run?
A: The EC50 was 0.178 µM.

Q: And the Emax?
A: Its Emax is 70%.

Q: Which EC50 does the source give for `O=C(NCc1cccs1)c1cccnc1SCCCCc1ccccc1` [compound 100, 2-(4-Phenyl-butylsulfanyl)-N-(thiophen-2-yl-methyl)-pyridine-3-carboxylic acid amide] here?
A: The EC50 was 1.59 µM.

Q: What about the Emax of the same compound?
A: Its Emax is 48%.

Q: `O=C(NCc1cccs1)c1cccnc1SCCCc1ccncc1` [compound 101, 2-(3-Pyridin-4-yl-propylsulfanyl)-N-(thiophen-2-yl-methyl)-pyridine-3-carboxylic acid amide] was tested. Which Emax did it give?
A: Its Emax is 38%.

Q: With `O=C(NCc1cccs1)c1cccnc1SCCCc1ccc2ccccc2c1` [compound 102, 2-(3-Naphthalen-2-yl-propylsulfanyl)-N-(thiophen-2-yl-methyl)-pyridine-3-carboxylic acid amide] as the compound, how does the EC50 read?
A: Its EC50 is 0.456 µM.

Q: What about the Emax of the same compound?
A: The Emax was 111%.

Q: For `Cc1cccc(CCCSc2ncccc2C(=O)NCc2cccs2)c1` [compound 103, 2-[3-(m-Tolyl)-propylsulfanyl]-N-(thiophen-2-yl-methyl)-pyridine-3-carboxylic acid amide], which EC50 is on record?
A: Its EC50 is 0.111 µM.

Q: And the Emax?
A: Its Emax is 129%.

Q: For `O=C(NCc1cccs1)c1cccnc1SCCCc1cccs1` [compound 104, N-(Thiophen-2-yl-methyl)-2-(3-thiophen-2-yl-propylsulfanyl)-pyridine-3-carboxylic acid amide], which EC50 is on record?
A: Its EC50 is 0.361 µM.

Q: What about the Emax of the same compound?
A: Its Emax is 87%.

Q: What does the source list for `CC(CCc1ccccc1)Sc1ncccc1C(=O)NCc1cccs1` (stereo not drawn) [compound 105, 2-[(1-Methyl-3-phenyl-propyl)sulfanyl]-N-(thiophen-2-yl-methyl)-pyridine-3-carboxylic acid amide]?
A: EC50: 0.479 µM; Emax: 166%

Q: Which results are given for `O=C(NCc1cccs1)c1cccnc1SCCCc1ccsc1` [compound 106, N-(Thiophen-2-yl-methyl)-2-(3-thiophen-3-yl-propylsulfanyl)-pyridine-3-carboxylic acid amide]?
A: EC50: 0.191 µM; Emax: 95%

Q: Which EC50 does the source give for `O=C(NCc1cccs1)c1cccnc1SC1CCCCC1Cc1ccccc1` (stereo not drawn) [compound 108, 2-[(2-Benzyl-cyclohexyl)sulfanyl]-N-(thiophen-2-yl-methyl)-pyridine-3-carboxylic acid amide] here?
A: The EC50 was 0.165 µM.

Q: What about the Emax of the same compound?
A: The Emax was 143%.

Q: With `Cc1cc(CCCSc2ncccc2C(=O)NCc2cccs2)cc(C(F)(F)F)c1` [compound 109, 2-[3-[3-Methyl-5-(trifluoromethyl)-phenyl]-propylsulfanyl]-N-(thiophen-2-yl-methyl)-pyridine-3-carboxylic acid amide] as the compound, how does the EC50 read?
A: The EC50 was 0.18 µM.

Q: What about the Emax of the same compound?
A: The Emax was 129%.

Q: `O=C(NCc1cccs1)c1cccnc1SCCCCc1ccc(F)c(F)c1` [compound 110, 2-[4-(3,4-Difluoro-phenyl)-butylsulfanyl]-N-(thiophen-2-yl-methyl)-pyridine-3-carboxylic acid amide] was tested. Which EC50 did it give?
A: The EC50 was 0.462 µM.

Q: And the Emax?
A: The Emax was 110%.

Q: With `O=C(NCc1cccs1)c1cccnc1SCCCc1ccccn1` [compound 111, 2-(3-Pyridin-2-yl-propylsulfanyl)-N-(thiophen-2-yl-methyl)-pyridine-3-carboxylic acid amide] as the compound, how does the EC50 read?
A: The EC50 was 11.1 µM.

Q: What about the Emax of the same compound?
A: Its Emax is 61%.

Q: `O=C(NCc1cccs1)c1ccc(N2CCCC2)nc1SCCCc1ccccc1` [compound 112] was tested. Which EC50 did it give?
A: The EC50 was 0.494 µM.

Q: What about the “Fluorimetry % efficacy (retigabine 50 μM = 100%)” value (“Fluorimetry % efficacy” for short) of the same compound?
A: Its value is 104%.

Q: Which results are given for `Cc1ccc(CCCSc2ncccc2C(=O)NCc2cccs2)cc1C(F)(F)F` [compound 113, 2-[3-[4-Methyl-3-(trifluoromethyl)-phenyl]-propylsulfanyl]-N-(thiophen-2-yl-methyl)-pyridine-3-carboxylic acid amide]?
A: EC50: 5.2 µM; Emax: 90%

Q: `O=C(NCc1cccs1)c1cccnc1SC1CCCC(c2ccccc2)C1` (stereo not drawn) [compound 114, 2-[(3-Phenyl-cyclohexyl)sulfanyl]-N-(thiophen-2-yl-methyl)-pyridine-3-carboxylic acid amide] was tested. Which EC50 did it give?
A: The EC50 was 0.553 µM.

Q: What about the Emax of the same compound?
A: The Emax was 128%.

Q: Which EC50 does the source give for `O=C(NCC1CC2CCC1C2)c1cccnc1SCCC(F)(F)c1ccc(F)cc1` (stereo not drawn) [compound 115] here?
A: The EC50 was 0.042 µM.

Q: And the “Fluorimetry % efficacy” value?
A: Its value is 213%.

Q: `O=C(NCC1CCCCCC1)c1cccnc1SCCC(F)(F)c1ccc(F)cc1` [compound 117, N-(Cycloheptyl-methyl)-2-[[3,3-difluoro-3-(4-fluorophenyl)-propyl]sulfanyl]-pyridine-3-carboxylic acid amide] was tested. Which EC50 did it give?
A: The EC50 was 0.035 µM.

Q: What about the Emax of the same compound?
A: The Emax was 160%.

Q: What does the source list for `O=C(NCc1cccs1)c1cccnc1SCCC(F)(F)c1ccc(F)cc1` [compound 118, 2-[[3,3-Difluoro-3-(4-fluorophenyl)-propyl]sulfanyl]-N-(thiophen-2-yl-methyl)-pyridine-3-carboxylic acid amide]?
A: EC50: 0.037 µM; Emax: 159%

Q: For `O=C(NCC1CCc2ccccc2C1)c1cccnc1SCCCc1ccc(F)cc1` (stereo not drawn) [compound 119, 2-[3-(4-Fluorophenyl)-propylsulfanyl]-N-(1,2,3,4-tetrahydro-naphthalen-2-yl-methyl)-pyridine-3-carboxylic acid amide], which Emax is on record?
A: Its Emax is 30%.

Q: Which EC50 does the source give for `O=C(NCC1Cc2ccccc2C1)c1cccnc1SCCCc1ccc(F)cc1` [compound 120, N-(2,3-Dihydro-1H-inden-2-yl-methyl)-2-[3-(4-fluorophenyl)-propylsulfanyl]-pyridine-3-carboxylic acid amide] here?
A: Its EC50 is 0.307 µM.

Q: And the Emax?
A: Its Emax is 61%.

Q: With `O=C(NCc1ccc2c(c1)OCO2)c1cccnc1SCCCc1ccc(F)cc1` [compound 121, N-(1,3-Benzodioxol-5-yl-methyl)-2-[3-(4-fluorophenyl)-propylsulfanyl]-pyridine-3-carboxylic acid amide] as the compound, how does the EC50 read?
A: Its EC50 is 0.256 µM.

Q: And the Emax?
A: Its Emax is 99%.

Q: With `O=C(NCc1cccc(-c2ccccc2)c1)c1cccnc1SCCCc1ccc(F)cc1` [compound 122, 2-[3-(4-Fluorophenyl)-propylsulfanyl]-N-[(3-phenyl-phenyl)-methyl]-pyridine-3-carboxylic acid amide] as the compound, how does the EC50 read?
A: The EC50 was 0.153 µM.

Q: And the Emax?
A: Its Emax is 94%.

Q: How did the EC50 turn out when `CC1CCCC(CNC(=O)c2cccnc2SCCCc2ccc(F)cc2)C1` (stereo not drawn) [compound 123, 2-[3-(4-Fluorophenyl)-propylsulfanyl]-N-[(3-methyl-cyclohexyl)-methyl]-pyridine-3-carboxylic acid amide] was run?
A: The EC50 was 0.155 µM.

Q: And the Emax?
A: The Emax was 168%.

Q: With `CC(C)(C)C(=O)CNC(=O)c1cccnc1SCCCc1ccc(F)cc1` [compound 125, N-(3,3-Dimethyl-2-oxo-butyl)-2-[3-(4-fluorophenyl)-propylsulfanyl]-pyridine-3-carboxylic acid amide] as the compound, how does the EC50 read?
A: The EC50 was 1.4 µM.

Q: And the Emax?
A: Its Emax is 99%.

Q: With `CC(C)(C)C(O)CNC(=O)c1cccnc1SCCCc1ccc(F)cc1` (stereo not drawn) [compound 126] as the compound, how does the EC50 read?
A: Its EC50 is 0.627 µM.

Q: And the “Fluorimetry % efficacy” value?
A: The value was 177%.

Q: For `O=C(NCc1cccnc1)c1cccnc1SCCCc1ccc(F)cc1` [compound 127, 2-[3-(4-Fluorophenyl)-propylsulfanyl]-N-(pyridin-3-yl-methyl)-pyridine-3-carboxylic acid amide], which EC50 is on record?
A: Its EC50 is 1.86 µM.

Q: What about the Emax of the same compound?
A: Its Emax is 147%.

Q: Which EC50 does the source give for `O=C(NCc1ccncc1)c1cccnc1SCCCc1ccc(F)cc1` [compound 128, 2-[3-(4-Fluorophenyl)-propylsulfanyl]-N-(pyridin-4-yl-methyl)-pyridine-3-carboxylic acid amide] here?
A: Its EC50 is 1.85 µM.

Q: And the Emax?
A: The Emax was 122%.

Q: With `COC(=O)c1cccc(CNC(=O)c2cccnc2SCCCc2ccc(F)cc2)c1` [compound 129, 3-[[[2-[3-(4-Fluorophenyl)-propylsulfanyl]-pyridine-3-carbonyl]amino]-methyl]-benzoic acid methyl ester] as the compound, how does the EC50 read?
A: Its EC50 is 0.325 µM.

Q: What about the Emax of the same compound?
A: Its Emax is 122%.

Q: What does the source list for `COc1ccccc1CCCNC(=O)c1cccnc1SCCCc1ccc(F)cc1` [compound 130, 2-[3-(4-Fluorophenyl)-propylsulfanyl]-N-[3-(2-methoxyphenyl)-propyl]-pyridine-3-carboxylic acid amide]?
A: EC50: 0.465 µM; Emax: 164%

Q: For `O=C(O)c1cccc(CNC(=O)c2cccnc2SCCCc2ccc(F)cc2)c1` [compound 131], which “Fluorimetry % efficacy” value is on record?
A: Its value is 25%.

Q: `CC(CCc1cccc(C(F)(F)F)c1)Sc1ncccc1C(=O)NCc1ccc(F)cc1` (stereo not drawn) [compound 132, N-[(4-Fluorophenyl)-methyl]-2-[[1-methyl-3-[3-(trifluoromethyl)phenyl]-propyl]sulfanyl]-pyridine-3-carboxylic acid amide] was tested. Which EC50 did it give?
A: The EC50 was 0.082 µM.

Q: And the Emax?
A: The Emax was 120%.

Q: How did the EC50 turn out when `O=C(NCCCn1cccn1)c1cccnc1SCCCc1ccc(F)cc1` [compound 135, 2-[3-(4-Fluorophenyl)-propylsulfanyl]-N-[3-(1H-pyrazol-1-yl)-propyl]-pyridine-3-carboxylic acid amide] was run?
A: Its EC50 is 3.14 µM.

Q: And the Emax?
A: Its Emax is 154%.

Q: For `O=C(NCc1ccc2ccccc2c1)c1cccnc1SCCCc1ccc(F)cc1` [compound 136, 2-[3-(4-Fluorophenyl)-propylsulfanyl]-N-(naphthalen-2-yl-methyl)-pyridine-3-carboxylic acid amide], which Emax is on record?
A: The Emax was 28%.
